A word on the Ki: it is a measure of affinity in units of concentration, obtained from inhibition or displacement. Read a high Ki as a looser hold on the target.

Where a name gives a salt, the structure may show the parent alone.

T1 sequence (P50406 whole entry): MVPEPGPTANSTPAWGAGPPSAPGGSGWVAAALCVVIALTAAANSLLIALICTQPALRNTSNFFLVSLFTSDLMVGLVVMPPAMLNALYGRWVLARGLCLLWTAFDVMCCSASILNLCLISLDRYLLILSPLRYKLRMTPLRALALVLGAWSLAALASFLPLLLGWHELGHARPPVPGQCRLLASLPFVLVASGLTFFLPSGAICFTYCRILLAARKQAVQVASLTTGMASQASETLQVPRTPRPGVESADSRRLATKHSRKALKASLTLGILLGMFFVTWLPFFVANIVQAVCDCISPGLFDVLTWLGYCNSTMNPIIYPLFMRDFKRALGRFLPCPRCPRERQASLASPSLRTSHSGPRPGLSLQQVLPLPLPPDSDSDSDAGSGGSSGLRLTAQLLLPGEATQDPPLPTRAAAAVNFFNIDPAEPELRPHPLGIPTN

The experiment concerns the target T1, human cloned 5-HT6 receptors (Homo sapiens, UniProt P50406).
T1 construct: expressed in transfected cells; host or cells: HeLa cells (membrane preparation)
Briefly: 5-HT6 binding affinity, [3H]-LSD displacement on membranes of Hela cells expressing human cloned 5-HT6 receptors. As to conditions: [3H]-LSD 3.0 nM, Hela cell membranes, 120 min at room temperature. The procedure: The affinity of test compounds for the serotonin 5-HT6 receptor is evaluated in the following manner. Cultured Hela cells expressing human cloned 5-HT6 receptors are harvested and centrifuged at low speed (1,000×g) for 10.0 min to remove the culture media. The harvested cells are suspended in half volume of fresh physiological phosphate buffered saline solution and recentrifuged at the same speed. This operation is repeated. The collected cells are then homogenized in ten volumes of 50 mM Tris.HCl (pH 7.4) and 0.5 mM EDTA. The homogenate is centrifuged at 40,000×g for 30.0 min and the precipitate is collected. The obtained pellet is resuspended in 10 volumes of Tris.HCl buffer and recentrifuged at the same speed. The final pellet is suspended in a small volume of Tris.HCl buffer and the tissue protein content is determined in aliquots of 10-25 μl volumes. Bovine Serum Albumin is used as the standard in the protein determination according to the method described in Lowry et al., J. Biol. Chem., 193:265 (1951). The volume of the suspended cell membranes is adjusted to give a tissue protein concentration of 1.0 mg/ml of suspension. The prepared membrane suspension (10 times concentrated) is aliquoted in 1.0 ml volumes and stored at −70° C. until used in subsequent binding experiments.
Binding experiments are performed in a 96 well microtiter plate format, in a total volume of 200 μl. […] The test compounds are added in 20.0 μl volume.
The reaction is allowed to proceed in the dark for 120 min at room temperature, at which time, the bound ligand-receptor complex is filtered off on a 96 well unifilter with a Packard Filtermate® 196 Harvester. The bound complex caught on the filter disk is allowed to air dry and the radioactivity is measured in a Packard TopCount® equipped with six photomultiplier detectors, after the addition of 40.0 μl Microscint®-20 scintillant to each shallow well. The unifilter plate is heat-sealed and counted in a PackardTopCount® with a tritium efficiency of 31.0%.
Binding in the presence of varying concentrations of test compound is expressed as a percentage of specific binding in the absence of test compound. The results are plotted as log % bound versus log concentration of test compound. […] A linear regression line of data points is plotted, from which the IC50 value is determined and the Ki value is determined based upon the following equation: […]
where L is the concentration of the radioactive ligand used and KD is the dissociation constant of the ligand for the receptor, both expressed in nM.
With `C[C@@H](NCC1CCc2ccc(NS(=O)(=O)c3ccc(C(F)(F)F)cc3)cc2O1)c1ccccc1` (stereo partly drawn) [Example 43, N-[2-({[(1R)-1-phenylethyl]amino}methyl)-3,4-dihydro-2H-chromen-7-yl]-4-(trifluoromethyl)benzenesulfonamide], the Ki was 6 nM.
Then `O=S(=O)(Nc1ccc2c(c1)OC(CNCCCO)CC2)c1ccc(Cl)cc1` (centres unmarked) [Example 31, 4-chloro-N-(2-{[(3-hydroxypropyl)amino]methyl}-3,4-dihydro-2H-chromen-7-yl)benzenesulfonamide], with 11 nM.
Consider `CC(=O)Nc1nc(C)c(S(=O)(=O)Nc2ccc3c(c2)OC(CN[C@H](C)c2ccccc2)CC3)s1` (stereo partly drawn) [Example 35, N-[4-methyl-5-({[2-({[(1R)-1-phenylethyl]amino}methyl)-3,4-dihydro-2H-chromen-7-yl]amino}sulfonyl)-1,3-thiazol-2-yl]acetamide], for which the inhibition constant Ki came to 7 nM.
Then `O=S(=O)(Nc1ccc2c(c1)OC(CNCc1ccncc1)CC2)c1ccccc1` (centres unmarked) [Example 15, N-(2-{[(pyridin-4-ylmethyl)amino]methyl}-3,4-dihydro-2H-chromen-7-yl)benzenesulfonamide], with 17 nM; and `C[C@@H](NCC1CCc2ccc(N(C)S(=O)(=O)c3ccc(Cl)cc3)cc2O1)c1ccccc1` (stereo partly drawn) [Example 53, 4-chloro-N-methyl-N-[2-({[(1R)-1-phenylethyl]amino}methyl)-3,4-dihydro-2H-chromen-7-yl]benzenesulfonamide], with 5 nM.
In turn, `C[C@@H](NC[C@H]1CCc2ccc(NS(=O)(=O)c3cccc4ccccc34)cc2O1)c1ccccc1` [Example 46A, N-[(2R)-2-({[(1R)-1-phenylethyl]amino}-methyl)-3,4-dihydro-2H-chromen-7-yl)naphthalene-1-sulfonamide Hydrochloride] registered an inhibition constant (Ki) of 37 nM.
`CC(C)C[C@H](CO)NCC1CCc2ccc(NS(=O)(=O)c3ccccc3)cc2O1` (stereo partly drawn) [Example 22, N-[2-({[(1R)-1-(hydroxymethyl)-3-methylbutyl]amino}methyl)-3,4-dihydro-2H-chromen-7yl]benzenesulfonamide] came in with an inhibition constant (Ki) of 3 nM.
`CC(C)NCC1CCc2ccc(NS(=O)(=O)c3ccccc3)cc2O1` (centres unmarked) [Example 19, N-{2-[(isopropylamino)methyl]-3,4-dihydro-2H-chromen-7-yl}benzenesulfonamide] had an inhibitory constant (Ki) of 16 nM.
Regarding `O=S(=O)(Nc1ccc2c(c1)OC(CN1CCCCC1CCO)CC2)c1ccccc1` (centres unmarked) [Example 23, N-(2-{[2-(2-hydroxyethyl)piperidin-1-yl]methyl}-3,4-dihydro-2H-chromen-7-yl)benzenesulfonamide], the Ki stood at 35 nM.
Then `C[C@@H](NC[C@@H]1CCc2ccc(NS(=O)(=O)c3ccccc3)cc2O1)c1ccccc1` [Example 45B, N[(2S)-2-({[(1R)-1-Phenylethyl]amino}methyl)-3,4-dihydro-2H-chromen-7-yl]phenylsulfonamide], with 17 nM.
For `CCCCOCCCNCC1CCc2ccc(NS(=O)(=O)c3ccccc3)cc2O1` (centres unmarked) [Example 7, N-(2-{[(3-butoxypropyl)amino]methyl}-3,4-dihydro-2H-chromen-7-yl)benzenesulfonamide], the inhibition constant Ki was 2 nM.
Then `CC(CCc1ccccc1)NCC1CCc2ccc(NS(=O)(=O)c3ccccc3)cc2O1` (centres unmarked) [Example 20, N-(2-{[(1-methyl-3-phenylpropyl)amino]methyl}-3,4-dihydro-2H-chromen-7-yl)benzenesulfonamide], with 6 nM; and `Cc1c(S(=O)(=O)Nc2ccc3c(c2)OC(CN[C@H](C)c2ccccc2)CC3)sc2ccc(Cl)cc12` (stereo partly drawn) [Example 36, 5-chloro-3-methyl-N-[2-({[(1R)-1-phenylethyl]amino}methyl)-3,4-dihydro-2H-chromen-7-yl]-1-benzothiophene-2-sulfonamide], with 45 nM.
With `C[C@@H](NC[C@@H]1CCc2ccc(NS(=O)(=O)c3ccc(N)cc3)cc2O1)c1ccccc1` [Example 47B, 4-Amino-N-[(2S)-2-({[(1R)-1-phenylethyl]amino}methyl)-3,4-dihydro-2H-chromen-7-yl]benezenesulfonamide Hydrochloride] the figure was 11 nM.

For the origin of these results see patent US6706757B2, “Chroman derivatives as 5-hydroxytryptamine-6 ligands” (Wyeth, priority 2001, dated 2004).
